According to ChEMBL document CHEMBL4425117 (Bioorg Med Chem Lett, 2016):

Experiments:
[1] = Oral bioavailability in rat at 15 mg/kg; type: ADME, organism-based; conditions: in vivo
[2] = Oral bioavailability in dog at 15 mg/kg; type: ADME, organism-based, Canis lupus familiaris; conditions: in vivo
[3] = Oral bioavailability in dog; type: ADME, organism-based, Canis lupus familiaris; conditions: in vivo
Endothelin-1 receptor [4] = target: T1, Endothelin-1 receptor (Homo sapiens, UniProt P25101); experiment: Displacement of [125I]-ET-1 from human ETA receptor expressed in CHO cell membranes after 2 hrs by scintillation counting
T1 sequence (P25101 whole entry): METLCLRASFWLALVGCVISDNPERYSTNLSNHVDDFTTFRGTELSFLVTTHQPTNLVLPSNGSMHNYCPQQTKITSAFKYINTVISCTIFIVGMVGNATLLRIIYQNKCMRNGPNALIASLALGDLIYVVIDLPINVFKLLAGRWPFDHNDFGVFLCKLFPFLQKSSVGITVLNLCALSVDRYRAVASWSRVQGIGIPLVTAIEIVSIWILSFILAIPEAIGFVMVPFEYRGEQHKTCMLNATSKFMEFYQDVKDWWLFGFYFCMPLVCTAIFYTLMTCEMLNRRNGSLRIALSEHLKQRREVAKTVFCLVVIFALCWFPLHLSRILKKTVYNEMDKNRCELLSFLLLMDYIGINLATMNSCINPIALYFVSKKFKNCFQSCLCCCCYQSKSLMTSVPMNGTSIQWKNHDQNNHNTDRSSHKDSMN

Endothelin-1 receptor [5] = target: T1, Endothelin-1 receptor; experiment: Antagonist activity at ETA receptor (unknown origin) in presence of ET1
[6] = target: T2, Endothelin receptor type B (Homo sapiens, UniProt P24530); experiment: Displacement of radioligand from ETB receptor in human placenta cell membranes
T2 sequence (P24530 whole entry): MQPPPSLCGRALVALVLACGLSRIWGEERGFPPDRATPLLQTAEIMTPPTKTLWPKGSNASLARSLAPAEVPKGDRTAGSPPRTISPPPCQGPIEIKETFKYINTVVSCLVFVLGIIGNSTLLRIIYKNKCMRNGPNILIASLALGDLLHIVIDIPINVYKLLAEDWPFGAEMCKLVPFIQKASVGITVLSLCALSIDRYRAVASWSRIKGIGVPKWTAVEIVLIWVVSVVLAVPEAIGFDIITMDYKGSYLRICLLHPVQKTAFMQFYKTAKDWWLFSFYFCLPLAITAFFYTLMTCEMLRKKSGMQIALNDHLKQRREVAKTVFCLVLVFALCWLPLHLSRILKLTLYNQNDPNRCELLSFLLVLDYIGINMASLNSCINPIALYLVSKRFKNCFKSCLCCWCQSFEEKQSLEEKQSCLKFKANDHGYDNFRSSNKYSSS

[7] = target: T2, Endothelin receptor type B; experiment: Antagonist activity at ETB receptor (unknown origin) in presence of ET1
Endothelin-1 receptor [8] = target: T1, Endothelin-1 receptor; experiment: Displacement of 125I-ET1 from ETA receptor (unknown origin) expressed in CHO cells; type: cell-based
Endothelin-1 receptor [9] = target: T1, Endothelin-1 receptor; experiment: Antagonist activity at ETA receptor (unknown origin)
Endothelin-1 receptor [10] = target: T1, Endothelin-1 receptor; experiment: Displacement of 125I-ET1 from human placenta cell membrane ETA receptor expressed in Baculovirus-infected insect cells
[11] = target: T2, Endothelin receptor type B; experiment: Antagonist activity at ETB receptor (unknown origin)
Endothelin-1 receptor [12] = target: T1, Endothelin-1 receptor; experiment: Antagonist activity at human ETA receptor expressed in CHO cells in presence of ET1; type: cell-based
[13] = target: T3, Endothelin receptor type B (Rattus norvegicus, UniProt P21451); experiment: Displacement of 125I-ET1 from rat aortic ring ETB receptor
T3 sequence (P21451 whole entry): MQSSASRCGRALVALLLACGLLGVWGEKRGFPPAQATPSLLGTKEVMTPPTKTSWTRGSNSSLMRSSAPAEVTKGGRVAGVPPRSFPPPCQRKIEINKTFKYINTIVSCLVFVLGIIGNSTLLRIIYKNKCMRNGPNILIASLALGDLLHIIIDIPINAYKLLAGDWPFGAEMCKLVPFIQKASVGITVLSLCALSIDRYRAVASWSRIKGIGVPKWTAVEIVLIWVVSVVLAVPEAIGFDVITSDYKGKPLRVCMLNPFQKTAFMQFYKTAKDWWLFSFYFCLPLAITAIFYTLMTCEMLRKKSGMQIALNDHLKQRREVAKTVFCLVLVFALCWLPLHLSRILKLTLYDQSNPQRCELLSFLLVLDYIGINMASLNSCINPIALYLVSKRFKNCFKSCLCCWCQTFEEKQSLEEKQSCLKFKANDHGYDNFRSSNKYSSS

Endothelin-1 receptor [14] = target: T1, Endothelin-1 receptor; experiment: Displacement of 125I-ET1 from human smooth muscle ETA receptor expressed in fall armyworm sf9 cell membranes
[15] = target: T3, Endothelin receptor type B; experiment: Displacement of [125I]-ET1 from ETB receptor in rat cerebellum after 3 hrs by scintillation counting method; type: tissue-based

Description for physchem: Dissociation constant, pKa of the compound

Cc1cc2c(cc1CC(=O)c1sccc1S(=O)(=O)Nc1onc(C)c1Cl)OCO2 [SITAXENTAN]
bioavailability [1]: 60 to 100%
bioavailability [2]: 60 to 100%

CCc1cc(C2=C(C(=O)O)N(c3ccccc3C(F)(F)F)S(=O)(=O)c3ccccc32)cc2c1OCO2 [FANDOSENTAN]
bioavailability [3]: 100%
IC50 (Endothelin-1 receptor [4]): 0.5 nM

COc1ccccc1Oc1c(NS(=O)(=O)c2ccc(C)cn2)nc(-c2ccncc2)nc1OC [AVOSENTAN]
IC50 (Endothelin-1 receptor [5]): 3.1 nM
IC50 [6]: 600 nM
IC50 [7]: 1200 nM
IC50 (Endothelin-1 receptor [8]): 1.4 nM

COc1ccccc1Oc1c(NS(=O)(=O)c2ccc(C(C)C)cc2)nc(C(F)(F)F)nc1OCCO
IC50 (Endothelin-1 receptor [9]): 26 nM
IC50 (Endothelin-1 receptor [10]): 50 nM
IC50 [11]: 914 nM

CCCNS(=O)(=O)Nc1ncnc(OCCOc2ncc(Br)cn2)c1-c1ccc(Br)cc1
pKa (physchem): 6.2
IC50 (Endothelin-1 receptor [12]): 3.4 nM

COc1cccc(Oc2c(NS(=O)(=O)c3ccc(C(C)(C)C)cc3)ncnc2OCCO)c1
IC50 [13]: 1000 nM
IC50 (Endothelin-1 receptor [14]): 220 nM

Cc1noc(NS(=O)(=O)c2ccccc2-c2ccc(-c3ncco3)cc2)c1C
Ki [15]: 1900 nM
